For nine compounds, Ki results are on record in US8389743B2, “Histamine-3 receptor antagonists” (Pfizer Inc., priority 2005, dated 2013).

Where a name gives a salt, the structure may show the parent alone.

A word on the Ki: it is a dissociation constant, usually derived from enzyme kinetics or from competition with a known ligand.

The target in this assay is T1, rat histamine H3 receptors (Rattus norvegicus, UniProt Q9QYN8).
T1 construct: Frozen rat frontal brain or frozen human post-mortem frontal brain is homogenized; from tissue; host or cells: rat frontal brain membranes
T1 sequence (Q9QYN8 whole entry): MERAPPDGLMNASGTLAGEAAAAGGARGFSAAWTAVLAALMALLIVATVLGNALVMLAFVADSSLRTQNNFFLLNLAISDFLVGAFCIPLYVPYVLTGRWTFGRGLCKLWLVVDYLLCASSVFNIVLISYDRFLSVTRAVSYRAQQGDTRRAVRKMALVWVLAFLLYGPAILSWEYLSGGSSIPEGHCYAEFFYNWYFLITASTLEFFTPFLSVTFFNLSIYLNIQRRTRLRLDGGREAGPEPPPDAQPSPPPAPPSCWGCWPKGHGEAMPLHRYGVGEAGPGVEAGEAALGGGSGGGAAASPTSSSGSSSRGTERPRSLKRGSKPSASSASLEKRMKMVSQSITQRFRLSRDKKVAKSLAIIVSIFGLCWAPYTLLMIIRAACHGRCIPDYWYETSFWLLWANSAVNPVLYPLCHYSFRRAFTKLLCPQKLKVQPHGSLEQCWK
The assay is described as follows: Rat Histamine H3 Receptor Binding. As to conditions: rat frontal brain membranes; radioligand 3H-N-methyl-histamine 1 nM; 1 hour incubation; read-out: rH3 Ki. As for the experimental part:
The in vitro affinity of the compounds in the present invention at the rat or human histamine H3 receptors can be determined according to the following procedure. Frozen rat frontal brain or frozen human post-mortem frontal brain is homogenized in 20 volumes of cold 50 mM Tris HCl containing 2 mM MgCl2 (pH to 7.4 at 4° C.). The homogenate is then centrifuged at 45,000 G for 10 minutes. The supernatant is decanted and the membrane pellet resuspended by Polytron in cold 50 mM Tris HCl containing 2 mM MgCl2 (pH to 7.4 at 4° C.) and centrifuged again. The final pellet is resuspended in 50 mM Tris HCl containing 2 mM MgCl2 (pH to 7.4 at 25° C.) at a concentration of 12 mg/mL. Dilutions of compounds are made in 10% DMSO/50 mM Tris buffer (pH 7.4) (at 10× final concentration, so that the final DMSO concentration is 1%). Incubations are initiated by the addition of membranes (200 microliters) to 96 well V-bottom polypropylene plates containing 25 microliters of drug dilutions and 25 microliters of radioligand (1 nM final concentration 3H—N-methyl-histamine). After a 1 hour incubation, assay samples are rapidly filtered through Whatman GF/B filters and rinsed with ice-cold 50 mM Tris buffer (pH 7.4) using a Skatron cell harvester. Radioactivity is quantified using a BetaPlate scintillation counter. The percent inhibition of specific binding can then be calculated.

With `CCNC(=O)C1CC(F)(c2ccc(CN3CCC[C@@H]3C)c(F)c2)C1` (stereo partly drawn) [Example 59, 3-Fluoro-3-[3-fluoro-4-((S)-2-methyl-pyrrolidin-1-ylmethyl)-phenyl]-cyclobutanecarboxylic acid ethylamide], the Ki worked out at 21.4 nM.

`O=C(NCC1CC1)C1CC(F)(c2ccc(CN3CCCC3)c(Cl)c2)C1` (stereo not drawn) [Example 46, 3-(3-Chloro-4-pyrrolidin-1-ylmethyl-phenyl)-3-fluoro-cyclobutanecarboxylic acid cyclopropylmethyl-amide]: the inhibitory constant (Ki) came out at 10.9 nM. On to `O=C(C1CC(F)(c2ccc(CN3CCCC3)c(F)c2)C1)N1CCCC1` (stereo not drawn) [Example 9, N-{2-fluoro-4-[1-fluoro-3-(pyrrolidin-1-ylcarbonyl)cyclobutyl]benzyl}-pyrrolidine hydrochloride], for which the inhibition constant (Ki) stood at 18.9 nM.

As for `CC(C)CNC(=O)C1CC(F)(c2cc(Cl)c(CN3CCCC3)cc2F)C1` (mixture of isomers) [Example 11, 3-(5-Chloro-2-fluoro-4-pyrrolidin-1-ylmethyl-phenyl)-3-fluoro-cyclobutanecarboxylic acid isobutyl-amide], the inhibition constant (Ki) worked out at 24.1 nM. `CCNC(=O)C1CC(F)(c2ccc(CN3CCCC3)c(F)c2)C1` (stereo not drawn) [Example 16, 3-Fluoro-3-(3-fluoro-4-pyrrolidin-1-ylmethyl-phenyl)-cyclobutanecarboxylic acid ethylamide]: the inhibition constant (Ki) worked out at 20.7 nM.

`CCN(C)C(=O)C1CC(F)(c2ccc(CN3CCCC3)c(F)c2)C1` (stereo not drawn) [Example 23, 3-Fluoro-3-(3-fluoro-4-pyrrolidin-1-ylmethyl-phenyl)-cyclobutanecarboxylic acid ethyl-methyl-amide]: the Ki was 28.8 nM. With `CC(C)CNC(=O)C1CC(F)(c2ccc(CN3CCCC3)c(F)c2)C1` (single isomer, unassigned) [Example 55, 3-Fluoro-3-(3-fluoro-4-pyrrolidin-1-ylmethyl-phenyl)-cyclobutanecarboxylic acid isobutyl-amide] the figure was 10.1 nM; with `CN(CC1CC1)C(=O)C1CC(F)(c2ccc(CN3CCCC3)c(Cl)c2)C1` (mixture of isomers) [Example 50, 3-(3-Chloro-4-pyrrolidin-1-ylmethyl-phenyl)-3-fluoro-cyclobutanecarboxylic acid cyclopropylmethyl-methyl-amide], 32.3 nM. The figure for `CCNC(=O)C1CC(c2ccc(CN3CCCC3)c(F)c2)C1` (stereo not drawn) [Example 13, 3-(3-Fluoro-4-pyrrolidin-1-ylmethyl-phenyl)-cyclobutanecarboxylic acid ethylamide] is 10.1 nM.
